The source of these data is patent US4409233A, “Highly concentrated preparations of dopa compounds” (Sankyo Company, Limited, priority 1978, dated 1983).

The conditions of data set [1]: cited from earlier work.
Data set [2] is described as follows: Solubility of dopa compounds in water. Format: physicochemical. To be noted: 50 mg of dopa.

≈ marks a conversion by molar mass, not a printed value.

Consider `NC(Cc1ccc(O)c(O)c1)C(=O)O` (stereo not drawn) [dopa, β-(3,4-dihydroxyphenyl)-α-alanine], for which, in data set [1], the solubility in water was 2.5 mg/mL (≈ 12.7 mM) and the “solubility in water (in words)” value is listed as “poor solubility in water”. The “volume of water necessary to dissolve the minimal dose of dopa” value in data set [2] worked out at 20 mL.

On to `C[C@](N)(Cc1ccc(O)c(O)c1)C(=O)O` [methyldopa, L-3-(3,4-dihydroxyphenyl)-2-methylalanine], for which, in data set [1], the “solubility in water (in words)” value is given as “poor solubility in water”.
